Data reported in publication PMC7662523, “Evaluation of Polyhedral Oligomeric Silsesquioxane Porphyrin Derivatives on Photodynamic Therapy” (Molecules, 2020).

How the values were obtained:
[1] = Singlet oxygen quantum yield, indirect method with DMA as 1O2 probe in DMF; format: physicochemical; conditions: for ΦΔ (1O2 quantum yield): DMA probe, irradiated at 515 nm, relative to TPP (ΦΔ = 0.62), n = 3
Method: The ^1O2 quantum yield (ΦΔ) of the POSSP compounds in dimethyl formamide (DMF) was indirectly determined using 9,10-dimethylanthracene (DMA) as ^1O2 probe. DMA reacts with ^1O2, undergoing a 1,4-cycloaddition that is detected as a decrease in the intensity of the DMA absorption band at 379 nm.
The ^1O2 quantum yields (ΦΔ) were determined through an indirect method using dimethylanthracence (DMA) as the singlet oxygen probe. Several solutions containing DMF were air saturated and prepared with DMA (50 μM) and the POSSPs or parent porphyrins (TPP, ATPP, TAPP and compound 6) (5 μM). These solutions were covered with aluminum foil to avoid any premature quenching. Quartz cuvettes (1 cm × 1 cm) were filled with 1 mL of the solution, placed in a spectrofluorophotometer (xenon lamp, Shimadzu RF-5301 PC) and irradiated at 515 nm for 600 s. The absorbance decay of DMA was monitored at 380 nm, which was corrected from light scattering by subtracting the spectra of POSSPs. The ΦΔ was calculated using Equation (2). Φ∆,S = Φ∆,R (mSample/mRerefence) (1−10^−absReference/1−10^−absSample)(2) where Φ∆,S is the singlet oxygen quantum yield of the sample and m is the slope of the plotted data relative to the area of the emission peak against the absorption of the reference.

[2] = Partition coefficient (log POW) from n-butanol/water measurement; format: physicochemical; conditions: n-butanol/water measured at 25 °C, converted with calibration equation
Method: The log POW values of the POSSPs and controls were first measured in an n-butanol/water mixture, and then correlated with corresponding values in n-octanol/water using a calibration curve reported in the literature. Distilled water and butanol were thoroughly mixed for 24 h at 25 °C to achieve solvent saturation in both phases. Then, the porphyrin derivatives were added to the mixture and the phases separated through a separatory funnel. The UV–Vis absorbance of the compounds in water and n-butanol was recorded at 420 nm. logPBW = log[(Ab/Aw)(Vw/Vb)](3) where Ab is the absorbance of n-butanol phase; AW is the absorbance of water phase; VW is the volume of water; and Vb is the volume of n-butanol. The partition coefficient of porphyrin derivatives in n-butanol/water was obtained using Equation (3). The log POW values were calculated using Equation (4). logPOW = −0.54 + 1.55 log(PBW)(4)

[3] = Fluorescence quantum yield, comparative method relative to TPP; format: physicochemical; conditions: air-saturated, excitation 520 nm, relative to TPP in benzene, n = 3
Method: The fluorescence quantum yields (ΦF) were determined to indirectly characterize the efficiency with which the POSSP compounds undergo intersystem crossing (ISC) from the excited state to the triplet state, an essential step in ROS generation. […] In the case of POSSPs 4 and 5, no differences in the ΦF values were observed.
The fluorescence quantum yields for air-saturated solutions (ΦF) in THF (POSSPs 1–3) or DMSO (POSSPs 4 and 5) were determined using the comparative method. TPP was used as a reference with a fluorescence quantum yield of 0.12 in benzene. The POSSPs concentrations ranged from 0.1 to 10 µM (THF) for POSSPs 1–3 and from 3 to 15 µM (DMSO) for POSSPs 4 and 5. The excitation wavelength was 520 nm and the excitation and emission slit width were 2 nm. The fluorescence quantum yields were measured according to the comparative method described by Equation (1).

MDA-MB-231 cells [4] = test: In vitro phototoxicity, MTS assay after red light (630 nm) irradiation; format: cell-based, human; conditions: for reduction in cell proliferation: 0.5 µM, 48 h incubation, 630 nm 24.5 mW/cm2 20 min; for phototoxicity (in words): highest concentration evaluated (0.5 µM), 630 nm light
Method: (§1) The phototoxicities of ATPP, TAPP, compound 6 and POSSPs 1–5 were tested by using the MTS assay. For this study, MDA-MB-231 cells were seeded in a 96-well plate at a density of 5 × 10^3 cells per well in 100 µL of complete media and incubated at 37 °C in 5% CO2 atmosphere for 24 h. After removing the cell culture medium, POSSPs 1–5 at different concentrations (0.01–0.5 µM) were prepared in cell media from a stock solution in DMSO with a final volume of the organic solvent not larger than 1% vol. After 48 h of incubation in the presence of POSSPs, the culture media was removed, and the cells were washed twice with phosphate buffer solution. MDA-MB-231 cells were illuminated with the red light (630 nm) at a fluence rate of 24.5 mW/cm^2 for 20 min. Control experiments were maintained in the same conditions, but in the dark for the same interval of time. After irradiation, the media was replaced by fresh media and the cells were allowed to grow for an additional 24 h. The cyto- and phototoxicities of compound 6 and POSSPs 4 and 5 were also evaluated following the above described protocol, but using concentrations ranging 0.01–100 µM.
To quantify the phototoxic or dark toxicity effects of the experiments above described, the treated MDA-MB-231 cells were subjected to cell viability assay using the CellTiter 96® Aqueous solution assay. To perform the assay, the cell media was removed, and the cells were washed once with phosphate buffer solution. Fresh media (100 µL) together with 20 µL of CellTiter 96® was added into each well and incubated for 2–3 h at 37 °C in 5% CO2 atmosphere. Cell viability (%) was calculated as follows: viability = (Asample/Acontrol) × 100%, where Asample and Acontrol denote absorbance values of the sample and control wells measured at 490 nm, respectively. The results are reported as the average ± SD of three experiments. The IC50 values were determined using GraphPad Prism (v8.1.2 for macOS, La Jolla California, CA, USA) fitting the viability data to a sigmoidal curve mathematical model.

MDA-MB-231 cells [5] = test: Cell internalization by flow cytometry (percentage of positive cells); format: cell-based, human; conditions: 0.5 µM, 24 h
Method: Six-well plates were prepared with 1 × 10^5 MDA-MB-231 cells per well in complete RPMI media (2 mL) and incubated at 37 °C in 5% CO2 for 48 h. The media was removed from each well and media solutions of control porphyrin (ATPP) and POSSPs 1–5 (2 mL, 0.5 µM) were added to the wells. The cells were incubated at 37 °C in 5% CO2 atmosphere for 24 h. The cell media was removed from the wells, and the cells were washed with phosphate buffer solution two times. The cells were incubated for 3–5 min in the presence of trypsin (500 µL). Cells were removed and transferred to a centrifuge tube. Media (500 µL) was added to each well to remove any remaining cells and mixed with the previous solution. The cell pellet was obtained after centrifugation (2.5k RPM, 10 min). The supernatant was discarded, and phosphate buffer solution (500 µL) was added to each tube. The cell pellet was mixed and transferred to flow cytometry tubes. The cell internalization of POSSP compounds was measured as the percentage of positive cells using a flow cytometer (BD LSRFortessa).

MDA-MB-231 cells [6] = test: In vitro cytotoxicity in the absence of light, MTS assay; format: cell-based, human; conditions: concentrations 0.01–100 µM, Figure S7
Method: as §1, with “MDA-MB-231 cells were illuminated with the red light (630 nm) at a fluence rate of 24.5 mW/cm^2 for 20 min. Control experiments were maintained in the same conditions, but in the dark for the same interval of time. After irradiation, the media was replaced by fresh media and the cells were allowed to grow for an additional 24 h.” left out
To quantify the phototoxic or dark toxicity effects of the experiments above described, the treated MDA-MB-231 cells were subjected to cell viability assay using the CellTiter 96® Aqueous solution assay. […] Cell viability (%) was calculated as follows: viability = (Asample/Acontrol) × 100%, where Asample and Acontrol denote absorbance values of the sample and control wells measured at 490 nm, respectively. […] The IC50 values were determined using GraphPad Prism (v8.1.2 for macOS, La Jolla California, CA, USA) fitting the viability data to a sigmoidal curve mathematical model.

[7] = reference value used for calculation; cited from earlier work
[8] = parameters: method as in PMID 10911728; conditions: in benzene; cited from earlier work

SMILES	ΦΔ (1O2 quantum yield) [1]	log POW (in words) [2]	ΦF (fluorescence quantum yield) ([3]; in THF)	reduction in cell proliferation (MDA-MB-231 cells [4])	internalization in cells (in words) (MDA-MB-231 cells [5])	phototoxicity (in words) (MDA-MB-231 cells [4])	ΦF (fluorescence quantum yield) ([3]; in DMSO)	further results
CC(C)C[Si]12O[Si]3(CCCNC(=O)Nc4ccc(-c5c6nc(c(-c7ccccc7)c7ccc([nH]7)c(-c7ccccc7)c7nc(c(-c8ccccc8)c8ccc5[nH]8)C=C7)C=C6)cc4)O[Si]4(CC(C)C)O[Si](CC(C)C)(O1)O[Si]1(CC(C)C)O[Si](CC(C)C)(O2)O[Si](CC(C)C)(O3)O[Si](CC(C)C)(O4)O1 [POSSP 1]	0.82 ± 0.01	positive values	0.14 ± 0.01	43 ± 4%	–	–	–	–
O=C(NCCC[Si]12O[Si]3(c4ccccc4)O[Si]4(c5ccccc5)O[Si](c5ccccc5)(O1)O[Si]1(c5ccccc5)O[Si](c5ccccc5)(O2)O[Si](c2ccccc2)(O3)O[Si](c2ccccc2)(O4)O1)Nc1ccc(-c2c3nc(c(-c4ccccc4)c4ccc([nH]4)c(-c4ccccc4)c4nc(c(-c5ccccc5)c5ccc2[nH]5)C=C4)C=C3)cc1 [POSSP 2]	0.60 ± 0.02	positive values	0.13 ± 0.01	–	internalized in a much higher percentage than the other POSSPs	did not show significant phototoxicity	–	–
NCCC[Si]12O[Si]3(CCCN)O[Si]4(CCCN)O[Si](CCCN)(O1)O[Si]1(CCCN)O[Si](CCCN)(O2)O[Si](CCCN)(O3)O[Si](CCCNC(=O)c2ccc(-c3c5nc(c(-c6ccccc6)c6ccc([nH]6)c(-c6ccccc6)c6nc(c(-c7ccccc7)c7ccc3[nH]7)C=C6)C=C5)cc2)(O4)O1 [POSSP 4]	0.70 ± 0.01	Negative log POW values	–	11 ± 2%	–	–	0.15 ± 0.01	–
C[N+](C)(C)CCC[Si]12O[Si]3(CCCNC(=O)c4ccc(-c5c6nc(c(-c7ccccc7)c7ccc([nH]7)c(-c7ccccc7)c7nc(c(-c8ccccc8)c8ccc5[nH]8)C=C7)C=C6)cc4)O[Si]4(CCC[N+](C)(C)C)O[Si](CCC[N+](C)(C)C)(O1)O[Si]1(CCC[N+](C)(C)C)O[Si](CCC[N+](C)(C)C)(O2)O[Si](CCC[N+](C)(C)C)(O3)O[Si](CCC[N+](C)(C)C)(O4)O1 [POSSP 5]	0.66 ± 0.01	Negative log POW values	–	–	–	did not show significant phototoxicity	0.10 ± 0.01	cytotoxicity at higher concentrations (in words) (MDA-MB-231 cells [6]): structural properties of the molecule also play a role in its toxicity
Nc1ccc(-c2c3nc(c(-c4ccccc4)c4ccc([nH]4)c(-c4ccccc4)c4nc(c(-c5ccccc5)c5ccc2[nH]5)C=C4)C=C3)cc1 [ATPP, 5-(4-aminophenyl)-10,15,20-(triphenyl)porphyrin, reference compound]	–	–	–	–	high internalization	minimal PDT effect	–	ΦΔ value (in words) ([1]; Table S1): low ΦΔ value
C1=Cc2nc1c(-c1ccccc1)c1nc(c(-c3ccccc3)c3ccc([nH]3)c(-c3ccccc3)c3ccc([nH]3)c2-c2ccccc2)C=C1 [TPP, 5,10,15,20-(tetraphenyl)porphyrin]	–	–	–	–	–	–	–	ΦΔ (1O2 quantum yield) of reference [7]: 0.62; fluorescence quantum yield of reference [8]: 0.12
